Results as given in patent US20070167466A1, “"Pyrazolo [4,3-d]pyrimidines, processes for their preparation and methods of use"” (priority 2003, published 2007).
Where a name gives a salt, the structure may show the parent alone. Read-outs that look alike come from different tables or passages of the source.

Tests used:
[1] = target: T1, CDK1 (p34^cdc2, cyclin B) (Homo sapiens, UniProt P06493); experiment: CDK inhibition assay, p34^cdc2 kinase, histone H1 phosphorylation; assay type: biochemical; settings: 15 μM ATP, histone H1, 30° C.
T1 construct: made in house; host or cells: Sf9 insect cells (baculovirus co-infection)
Procedure: The controls contain suitable dilutions of DMSO.
2-glycerolphosphate, 1 mM NaF, 1 mM DTT

[2] = test system: K562 (human chronic myeloblastic leukemia); experiment: In vitro cytotoxic activity, Calcein AM, three days; assay type: cell-based; settings: read-out: K-562 IC50
Procedure: (§1) We have been using the following cell lines: HELA (human cervical carcinoma), MCF7 (human breast adenocarcinoma), NIH 3T3 (mouse fibroblasts), HOS (human osteogenic sarcoma), HL 60 (human promyelocytic leukemia), G 361 (human malignant melanoma), K562 (human chronic myeloblastic leukemia), CEM (human lymphoblastoid leukaemia). Tested drugs were added to the cell cultures in six different concentration and kept at 37° C. and 5% CO2 for three days. All cell lines were grown in DMBM medium (Gibco BRL) supplemented with 10% (v/v) fetal bovine serum and L-glutamine and maintained at 37° C. in a humidified atmosphere with 5% CO2. 10^4 cells were seeded into each well of 96 well plate, allowed to stabilize for at least 2 h and then tested compounds were added at various concentrations ranging from 200 to 0.2 μM in triplicates. Three days after drug addition Calcein AM solution (Molecular Probes) was added and let to enter the cells for 1 hour. Fluorescence of viable cells was quantified employing Fluoroskan Ascent (Microsystems).

[3] = test system: MCF7 (human breast adenocarcinoma); experiment: as above; assay type: cell-based
Procedure: as §1

[4] = test system: Cytokinin-dependent tobacco callus Nicotiana tabacum L. cv. Wisconsins 38; experiment: Tobacco callus bioassay for cytotoxicity (herbicidal activity); assay type: cell-based; settings: four weeks
Procedure: The compounds to be tested were dissolved in dimethylsulfoxide (DMSO) and the solution brought up to 10^−3 M with distilled water. […] Cytokinin-dependent tobacco callus Nicotiana tabacum L. cv. […] Subcultivation was carried out every three weeks. Fourteen days before the bioassay, the callus tissue was transferred to the media without 6-benzylaminopurine. Compounds were tested with two different concentrations of 6-benzylaminopurine (10^−5 M and 10^−6 M). Inhibitory growth activity was determined from the increase in fresh callus weight after four weeks of cultivation. Five replicates were prepared for each concentration tested and the entire test was repeated at least twice.

[5] = target: CDK2 (p33^cdk2, cyclin E) (Homo sapiens, UniProt P24941); experiment: CDK inhibition assay, p33^cdk2 kinase, histone H1 phosphorylation;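 further: Baculovirus-expressed kinase/cyclin complex from Sf9 cell extract, 10 min at 30 °C, phosphoproteins separated by SDS gel and quantified by image analysis, activity relative to DMSO control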
Procedure: Cyclin-dependent kinases (p34^cdc2, p33^cdk2) and cyclins (cyclin B, E) are produced in Sf9 insect cells coinfected with appropriate baculoviral constructs. The cells are harvested 68-72 hrs post infection in lysis buffer for 30 min on ice and the soluble fraction is recovered by centrifugation at 14.000 g for 10 min. The protein extract is stored at −80° C.
Lysis buffer: 50mM Tris pH 7.4, 150mM NaCl, 5 mM EDTA, 20 mM NaF, 1% Tween, 1 mM DTT, 0.1 mM PMSF, leupeptine, aprotonine.
To carry out experiments on kinetics under linear conditions, the final point test system for kinase activity measurement is used. The kinase is added to reaction mixture in such a way as to obtain linear activity with respect to the concentration of enzyme and with respect to time.
Kinase activity is determined at 30° C. in the kinase buffer.
Tested compounds are usually dissolved to 100 mM solutions in DMSO, final concentration of DMSO in reaction mixture never exceeds 1%. The controls contain suitable dilutions of DMSO.
After 10 min, addition 3×SDS sample buffer stops the incubations. Phosphorylated proteins are separated electrophoretically using 10% SDS polyacrylamide gel. The measurement of kinase activity is done using digital image analysis.
The kinase activity is expressed as a percentage of maximum activity, the apparent inhibition constants are determined by graphic analysis.
Kinase buffer: 50 mM Hepes pH 7.4, 10 mM MgCl2, 5 mM EGTA, 10 mM

[6] = Nicotiana tabacum, 672 h, read-out: IC50, growth of tobacco callus, 10^−5 M BAP, 10^−5 M 6-benzylaminopurine
[7] = Nicotiana tabacum, 672 h, 10^−6 M 6-benzylaminopurine, read-out: IC50, growth of tobacco callus, 10^−6 M BAP
[8] = read-out: CDK2 IC50, 15 μM ATP, histone H1, 30° C.

T1 sequence (P06493 whole entry, species assumed): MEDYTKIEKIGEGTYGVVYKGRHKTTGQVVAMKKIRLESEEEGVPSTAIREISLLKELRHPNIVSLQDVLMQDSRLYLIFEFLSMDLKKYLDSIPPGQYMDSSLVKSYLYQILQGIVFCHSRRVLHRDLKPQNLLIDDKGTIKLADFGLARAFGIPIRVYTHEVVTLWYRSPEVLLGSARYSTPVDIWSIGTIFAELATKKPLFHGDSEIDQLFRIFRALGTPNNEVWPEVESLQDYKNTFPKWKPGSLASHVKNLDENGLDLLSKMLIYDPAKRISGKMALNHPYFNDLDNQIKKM
T1 sequence (P14635 whole entry partner, species assumed): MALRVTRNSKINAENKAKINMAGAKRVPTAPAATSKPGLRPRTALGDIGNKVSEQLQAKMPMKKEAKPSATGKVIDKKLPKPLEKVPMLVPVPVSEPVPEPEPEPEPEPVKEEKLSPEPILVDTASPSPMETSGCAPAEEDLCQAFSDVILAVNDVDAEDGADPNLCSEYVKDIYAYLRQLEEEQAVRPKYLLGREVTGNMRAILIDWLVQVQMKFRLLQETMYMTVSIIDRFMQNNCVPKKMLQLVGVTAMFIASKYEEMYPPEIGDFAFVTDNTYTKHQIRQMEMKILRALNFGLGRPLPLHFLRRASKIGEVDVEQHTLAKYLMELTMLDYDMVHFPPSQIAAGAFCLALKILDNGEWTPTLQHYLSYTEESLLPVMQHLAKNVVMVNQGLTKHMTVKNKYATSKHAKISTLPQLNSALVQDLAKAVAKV

Structure (SMILES)	melting point [°C]	IC50 [1] [µM]	IC50 ([2]; Homo sapiens, K562, 72 h) [µM]	IC50 ([3]; Homo sapiens, MCF7, 72 h) [µM]	IC50 [4, 6] [µM]	IC50 [4, 7] [µM]	IC50 [5] [µM]	IC50 [2] [µM]	IC50 [3] [µM]	IC50 [5, 8] [µM]	IC50 ([4]; 10^−6 M 6-benzylaminopurine, read-out: IC50, growth of tobacco callus, 10^−6 M BAP) [µM]	IC50 ([4]; read-out: IC50, growth of tobacco callus, 10^−5 M BAP, 10^−5 M 6-benzylaminopurine) [µM]
CC(C)c1n[nH]c2c(Nc3cccc(Cl)c3)ncnc12 (as salt: salt) [3-chloroanilino / isopropyl, 7-(3-chloroanilino)-3-isopropylpyrazolo[4,3-d]pyrimidine]	213 to 216	–	–	–	–	–	–	–	–	–	–	–
CC(C)c1n[nH]c2c(NCc3ccccc3Cl)ncnc12 [2-chlorobenzylamino / isopropyl]	–	2.1	21	15	31	4.6	2	–	–	–	–	–
Cc1ccccc1CNc1ncnc2c(C(C)C)n[nH]c12 [2-methylbenzylamino / isopropyl]	–	2	75	63	14	4.2	1.4	–	–	–	–	–
CC(C)c1n[nH]c2c(Nc3cc(N)cc(Cl)c3)ncnc12 [3-chloro-5-aminoanilino / isopropyl]	–	6.1	35	29	–	–	5.8	–	–	–	–	–
CCc1n[nH]c2c(Nc3cccc(Cl)c3)ncnc12 [3-chloroanilino / ethyl]	–	24	28	19	–	–	18	–	–	–	–	–
CC(C)c1n[nH]c2c(NCc3cccc(Cl)c3)ncnc12 [3-chlorobenzylamino / isopropyl]	–	8.8	26	24	20	1.7	9.4	–	–	–	–	–
CCc1n[nH]c2c(NCc3cccc(O)c3)ncnc12 [3-hydroxybenzylamino / ethyl]	–	6	132	111	–	–	3.2	–	–	–	–	–
Cc1n[nH]c2c(NCc3cccc(O)c3)ncnc12 [3-hydroxybenzylamino / methyl]	–	5.5	143	119	–	–	7.2	–	–	–	–	–
Cc1cccc(CNc2ncnc3c(C(C)C)n[nH]c23)c1 [3-methylbenzylamino / isopropyl]	–	2.2	94	76	26	8.5	3.1	–	–	–	–	–
CC(C)c1n[nH]c2c(Nc3ccc(Br)cc3)ncnc12 [4-bromoanilino / isopropyl]	–	1.7	7	5	–	–	1.9	–	–	–	–	–
CC(C)c1n[nH]c2c(Nc3ccc(Cl)cc3)ncnc12 [4-chloroanilino / isopropyl]	–	2.1	4	3	–	–	3.1	–	–	–	–	–
CC(C)c1n[nH]c2c(NCc3ccc(Cl)cc3)ncnc12 [4-chlorobenzylamino / isopropyl]	–	1.8	–	–	12.1	4.7	1.1	–	–	–	–	–
CC(C)c1n[nH]c2c(NCc3ccc(O)cc3)ncnc12 [4-hydroxybenzylamino / isopropyl, 7-(4-hydroxybenzyl)amino-3-isopropylpyrazolo[4,3-d]pyrimidine]	–	1.8	> 167	152	–	–	0.2	–	–	–	–	–
COc1ccc(CNc2ncnc3c(C(C)C)n[nH]c23)cc1 [4-methoxybenzylamino / isopropyl, 7-(4-methoxybenzyl)amino-3-isopropylpyrazolo[4,3d]pyrimidine]	143 to 144	2.3	41	28	–	–	1	–	–	–	–	–
COc1ccc(CNc2ncnc3c(C(C)C)n[nH]c23)cc1O [7-(3-hydroxy-4-methoxybenzyl)amino-3-isopropylpyrazolo[4,3d]pyrimidine]	–	0.9	–	–	–	–	–	68	45	0.2	–	–
CC(C)c1n[nH]c2c(NC3CCC(N)CC3)ncnc12 (centres unmarked) [(4-aminocyclohexyl)amino / isopropyl]	–	80	–	–	–	–	–	107	68	70	–	–
Cn1cnc2c(NCc3ccccc3)nc(NCCO)nc21 [Olomoucine, reference compound]	–	–	> 167	132	> 50	> 50	–	–	–	–	–	–
C=CCNc1ncnc2c(C(C)C)n[nH]c12 [allylamino / isopropyl]	–	16	77	64	18	3.7	14	–	–	–	–	–
CC(C)c1n[nH]c2c(Nc3ccccc3)ncnc12 [anilino / isopropyl]	–	4.4	21	15	41	5.3	5.2	–	–	–	–	–
CCc1n[nH]c2c(NCc3ccccc3)ncnc12 [benzylamino / ethyl]	–	12	81	62	–	–	11	–	–	–	–	–
CCc1n[nH]c2c(NC3CCC3)ncnc12 [cyclobutylamino / ethyl]	–	27	94	82	–	–	25	–	–	–	–	–
CC(C)c1n[nH]c2c(NC3CCC3)ncnc12 [cyclobutylamino / isopropyl]	–	–	–	–	–	–	–	60	45	–	4.3	12.1
Cc1n[nH]c2c(NC3CCC3)ncnc12 [cyclobutylamino / methyl]	–	35	101	89	–	–	28	–	–	–	–	–
CC(C)c1n[nH]c2c(NC3CCCCC3)ncnc12 [cyclohexylamino / isopropyl]	–	80	98	95	46	9.4	95	–	–	–	–	–
CC(C)c1n[nH]c2c(NC3CCCC3)ncnc12 [cyclopentylamino / isopropyl]	–	18	–	–	15.6	8.4	20	–	–	–	–	–
CCc1n[nH]c2c(NCc3ccco3)ncnc12 [furfurylamino / ethyl]	–	8.2	> 167	135	–	–	5.3	–	–	–	–	–
CC(C)c1n[nH]c2c(NCc3ccco3)ncnc12 [furfurylamino / isopropyl, 7-furfurylamino-3-isopropylpyrazolo[4,3-d]pyrimidine]	179 to 182	1.8	> 167	130	25	9.4	0.8	–	–	–	–	–
CC(C)=CCNc1ncnc2c(C(C)C)n[nH]c12 [isopentenylamino / isopropyl, 7-(isopent-2-en-(1-yl)amino)-3-isopropylpyrazolo[4,3-d]pyrimidine]	–	4.5	> 167	> 167	15.3	1.7	1.3	–	–	–	–	–
CCCCCNc1ncnc2c(C(C)C)n[nH]c12 [pentylamino / isopropyl, 7-pentylamino-3-isopropylpyrazolo[4,3-d]pyrimidine]	73 to 75	1.7	61	32	–	–	1.4	–	–	–	–	–
